Source: EP4722207A1, “OXOISOINDOLINYL-SUBSTITUTED TETRAHYDROPYRIMIDINEDIONE DERIVATIVE AND USE THEREOF” (Gluetacs Therapeutics (Shanghai) Co., Ltd., priority 2023, dated 2024)

Key:
H292 = test: Cell viability assay (CellTiter-Meiluncell Luminescent), tumor cell proliferation, H292; settings: Homo sapiens, NCI-H292, 96 h; for inhibition at 0.01 µM: read-out: Inhibition Rate at 10 nM (%); for inhibition at 0.5 µM: read-out: Inhibition Rate at 500 nM (%)
Protocol: The tumor cells used herein were cultured in a cell culture medium listed in table 2 at 37°C in an incubator with 5% CO2. Prior to experimentation, all cell lines used were correctly identified by STR profiling, and tested negative for mycoplasma contamination using a mycoplasma detection kit through routine screenings.
On the following day, the test compounds of the present disclosure were subjected to serial dilution. […] Subsequently, 0.5 µL of the test compound dilution was transferred into the 96-well plate containing the cells, with each well containing 100 µL of cell culture medium. […] Into the 96-well plate, the diluted test compounds and corresponding detection reagents were added, resulting in final test compound concentrations of 500 nM and 10 nM, respectively. The experimental procedure is described below using the diluted 2 µM test compound as an example.
After the cells were treated with the compounds of the present disclosure for a specified period, the cell viability assay reagent was added to the culture medium according to the kit's instructions to determine cell viability. […] All controls were treated using the same procedure as the compounds of the present disclosure. The growth inhibition curves for the compounds of the present disclosure were plotted using Prism GraphPad software, and the IC50 values were calculated therefrom.

WEE1 = target: T1, WEE1 (Homo sapiens, UniProt P30291+Q96SW2); test: Western-blot assay, substrate protein degradation in hPBMCs: WEE1; format: cell-based; settings: 24 hours of compound treatment, 50 nM and 500 nM
T1 construct: effects of the compounds of the present disclosure on the expression of target proteins in cells; endogenous in cells; host or cells: human PBMCs (hPBMCs)

CK1α = target: T2, CK1α (Homo sapiens, UniProt P48729+Q96SW2); test: Western-blot assay, substrate protein degradation in hPBMCs: CK1α; format: cell-based; settings: 24 hours of compound treatment, 50 nM and 500 nM
T2 construct: effects of the compounds of the present disclosure on the expression of target proteins in cells; endogenous in cells; host or cells: human PBMCs (hPBMCs)

IKZF3 = target: T3, IKZF3 (Homo sapiens, UniProt Q96SW2+Q9UKT9); test: Western-blot assay, substrate protein degradation in hPBMCs: IKZF3; format: cell-based; settings: 24 hours of compound treatment, 50 nM and 500 nM
T3 construct: effects of the compounds of the present disclosure on the expression of target proteins in cells; endogenous in cells; host or cells: human PBMCs (hPBMCs)

IKZF1 = target: T4, IKZF1 (Homo sapiens, UniProt Q13422+Q96SW2); test: Western-blot assay, substrate protein degradation in hPBMCs: IKZF1; format: cell-based; settings: 24 hours of compound treatment, 50 nM and 500 nM
T4 construct: effects of the compounds of the present disclosure on the expression of target proteins in cells; endogenous in cells; host or cells: human PBMCs (hPBMCs)

GSPT1 = target: T5, GSPT1 (Homo sapiens, UniProt P15170+Q96SW2); test: Western-blot assay, substrate protein degradation in hPBMCs: GSPT1; format: cell-based; settings: 24 hours of compound treatment, 50 nM and 500 nM
T5 construct: effects of the compounds of the present disclosure on the expression of target proteins in cells; endogenous in cells; host or cells: human PBMCs (hPBMCs)

IKZF2 = target: T6, IKZF2 (Homo sapiens, UniProt Q96SW2+Q9UKS7); test: Western-blot assay, substrate protein degradation in hPBMCs: IKZF2; format: cell-based; settings: 24 hours of compound treatment, 50 nM and 500 nM
T6 construct: effects of the compounds of the present disclosure on the expression of target proteins in cells; endogenous in cells; host or cells: human PBMCs (hPBMCs)
T6 sequence (Q9UKS7 whole entry): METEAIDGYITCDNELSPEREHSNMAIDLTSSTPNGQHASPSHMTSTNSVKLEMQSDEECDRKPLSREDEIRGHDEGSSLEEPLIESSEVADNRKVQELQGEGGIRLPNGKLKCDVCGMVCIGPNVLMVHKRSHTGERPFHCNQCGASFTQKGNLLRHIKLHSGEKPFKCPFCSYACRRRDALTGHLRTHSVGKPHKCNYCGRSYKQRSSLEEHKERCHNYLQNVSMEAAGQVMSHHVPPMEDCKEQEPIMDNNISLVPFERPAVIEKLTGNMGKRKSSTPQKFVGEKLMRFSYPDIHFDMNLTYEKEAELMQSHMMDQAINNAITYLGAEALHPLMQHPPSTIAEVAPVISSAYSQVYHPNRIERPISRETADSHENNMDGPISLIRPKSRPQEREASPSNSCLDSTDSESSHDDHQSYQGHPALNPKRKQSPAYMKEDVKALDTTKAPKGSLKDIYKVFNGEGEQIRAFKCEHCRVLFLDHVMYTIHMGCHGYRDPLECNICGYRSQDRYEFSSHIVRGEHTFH
T6 sequence (Q96SW2 whole entry): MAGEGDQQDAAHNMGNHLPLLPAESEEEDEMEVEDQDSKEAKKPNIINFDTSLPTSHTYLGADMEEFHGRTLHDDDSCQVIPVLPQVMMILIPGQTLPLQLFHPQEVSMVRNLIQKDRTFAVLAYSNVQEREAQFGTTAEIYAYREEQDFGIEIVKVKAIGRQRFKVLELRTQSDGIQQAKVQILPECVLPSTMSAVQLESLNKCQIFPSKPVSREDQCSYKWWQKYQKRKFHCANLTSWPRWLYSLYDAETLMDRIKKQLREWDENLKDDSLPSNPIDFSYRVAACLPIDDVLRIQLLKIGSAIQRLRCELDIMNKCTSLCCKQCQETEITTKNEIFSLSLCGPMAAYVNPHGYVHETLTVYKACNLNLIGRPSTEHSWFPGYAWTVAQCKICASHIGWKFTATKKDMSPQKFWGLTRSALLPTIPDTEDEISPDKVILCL
T6 sequence (Q16531 whole entry partner): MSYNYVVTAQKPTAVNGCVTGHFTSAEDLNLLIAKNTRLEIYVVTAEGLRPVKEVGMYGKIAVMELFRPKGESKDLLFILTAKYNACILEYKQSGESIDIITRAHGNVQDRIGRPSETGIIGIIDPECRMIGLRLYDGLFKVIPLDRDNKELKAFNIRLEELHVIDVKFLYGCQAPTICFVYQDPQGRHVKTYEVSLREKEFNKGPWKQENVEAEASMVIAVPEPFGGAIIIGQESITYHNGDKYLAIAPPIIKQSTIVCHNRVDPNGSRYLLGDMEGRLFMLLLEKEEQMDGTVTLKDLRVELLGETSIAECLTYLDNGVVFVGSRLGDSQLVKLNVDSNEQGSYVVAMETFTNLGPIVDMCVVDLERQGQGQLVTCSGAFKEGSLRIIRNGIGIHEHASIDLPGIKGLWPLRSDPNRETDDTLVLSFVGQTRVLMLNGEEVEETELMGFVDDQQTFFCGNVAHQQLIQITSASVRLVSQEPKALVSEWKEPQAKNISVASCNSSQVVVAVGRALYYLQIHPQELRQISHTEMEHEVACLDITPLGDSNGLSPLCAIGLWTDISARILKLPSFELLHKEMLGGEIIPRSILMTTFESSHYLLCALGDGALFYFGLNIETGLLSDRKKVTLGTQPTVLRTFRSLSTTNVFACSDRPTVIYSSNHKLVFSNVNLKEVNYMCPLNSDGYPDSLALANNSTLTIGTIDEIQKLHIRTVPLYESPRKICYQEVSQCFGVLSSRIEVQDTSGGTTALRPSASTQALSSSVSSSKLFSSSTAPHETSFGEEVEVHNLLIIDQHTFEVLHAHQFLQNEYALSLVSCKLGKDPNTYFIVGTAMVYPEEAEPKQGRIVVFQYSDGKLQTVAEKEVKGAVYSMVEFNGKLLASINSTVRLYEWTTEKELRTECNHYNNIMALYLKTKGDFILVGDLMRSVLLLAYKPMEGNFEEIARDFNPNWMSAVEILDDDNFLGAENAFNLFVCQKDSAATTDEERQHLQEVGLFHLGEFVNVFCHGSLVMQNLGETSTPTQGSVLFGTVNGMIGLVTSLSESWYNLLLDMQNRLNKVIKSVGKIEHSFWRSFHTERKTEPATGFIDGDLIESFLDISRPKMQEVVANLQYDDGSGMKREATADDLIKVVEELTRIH

T1 sequence (P30291 whole entry): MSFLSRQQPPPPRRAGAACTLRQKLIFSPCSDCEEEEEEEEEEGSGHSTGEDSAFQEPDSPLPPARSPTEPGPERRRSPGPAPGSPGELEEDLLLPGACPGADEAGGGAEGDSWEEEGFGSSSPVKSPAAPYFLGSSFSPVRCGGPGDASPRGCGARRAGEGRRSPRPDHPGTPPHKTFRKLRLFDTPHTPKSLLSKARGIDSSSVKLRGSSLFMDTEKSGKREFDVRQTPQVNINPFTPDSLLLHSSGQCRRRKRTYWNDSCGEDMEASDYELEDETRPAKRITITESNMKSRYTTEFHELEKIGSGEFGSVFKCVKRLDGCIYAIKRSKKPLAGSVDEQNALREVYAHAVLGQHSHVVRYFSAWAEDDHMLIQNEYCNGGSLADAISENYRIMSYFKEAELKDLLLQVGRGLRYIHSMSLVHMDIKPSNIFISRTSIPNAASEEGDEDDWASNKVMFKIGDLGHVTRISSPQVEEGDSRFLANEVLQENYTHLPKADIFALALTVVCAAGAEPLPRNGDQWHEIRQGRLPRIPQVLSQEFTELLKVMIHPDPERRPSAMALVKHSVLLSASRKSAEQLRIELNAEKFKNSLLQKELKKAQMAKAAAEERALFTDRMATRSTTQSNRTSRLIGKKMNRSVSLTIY
T1 sequence (Q96SW2 whole entry): as the sequence (Q96SW2 whole entry) above
T1 sequence (Q16531 whole entry partner): as the sequence (Q16531 whole entry partner) above
T5 sequence (P15170 whole entry): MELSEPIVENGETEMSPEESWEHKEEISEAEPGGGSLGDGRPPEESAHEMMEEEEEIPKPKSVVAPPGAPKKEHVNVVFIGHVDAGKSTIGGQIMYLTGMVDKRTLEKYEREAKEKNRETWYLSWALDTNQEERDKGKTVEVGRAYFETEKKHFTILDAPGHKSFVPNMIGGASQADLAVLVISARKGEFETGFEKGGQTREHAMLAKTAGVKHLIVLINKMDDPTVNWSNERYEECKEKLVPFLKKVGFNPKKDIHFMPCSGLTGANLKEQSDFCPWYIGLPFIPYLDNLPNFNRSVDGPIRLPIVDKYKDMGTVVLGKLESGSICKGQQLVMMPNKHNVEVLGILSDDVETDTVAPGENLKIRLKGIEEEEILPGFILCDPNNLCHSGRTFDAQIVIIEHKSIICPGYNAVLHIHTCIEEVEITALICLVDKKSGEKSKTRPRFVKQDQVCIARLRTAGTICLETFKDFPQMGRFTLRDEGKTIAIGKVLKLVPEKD
T5 sequence (Q96SW2 whole entry): as the sequence (Q96SW2 whole entry) above
T5 sequence (Q16531 whole entry partner): as the sequence (Q16531 whole entry partner) above
T4 sequence (Q13422 whole entry): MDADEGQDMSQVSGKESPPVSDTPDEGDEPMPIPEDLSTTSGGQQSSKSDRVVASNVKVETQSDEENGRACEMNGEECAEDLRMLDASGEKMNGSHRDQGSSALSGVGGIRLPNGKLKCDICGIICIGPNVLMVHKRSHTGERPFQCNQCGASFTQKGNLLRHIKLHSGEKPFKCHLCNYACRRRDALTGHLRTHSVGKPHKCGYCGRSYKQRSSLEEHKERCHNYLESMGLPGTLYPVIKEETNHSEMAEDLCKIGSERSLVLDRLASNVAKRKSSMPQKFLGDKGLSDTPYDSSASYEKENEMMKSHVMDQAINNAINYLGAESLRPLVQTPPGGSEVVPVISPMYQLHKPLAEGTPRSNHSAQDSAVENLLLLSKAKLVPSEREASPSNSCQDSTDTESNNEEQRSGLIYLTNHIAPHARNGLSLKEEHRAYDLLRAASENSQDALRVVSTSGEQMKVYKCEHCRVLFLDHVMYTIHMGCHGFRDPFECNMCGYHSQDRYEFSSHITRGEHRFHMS
T4 sequence (Q96SW2 whole entry): as the sequence (Q96SW2 whole entry) above
T4 sequence (Q16531 whole entry partner): as the sequence (Q16531 whole entry partner) above
T2 sequence (P48729 whole entry): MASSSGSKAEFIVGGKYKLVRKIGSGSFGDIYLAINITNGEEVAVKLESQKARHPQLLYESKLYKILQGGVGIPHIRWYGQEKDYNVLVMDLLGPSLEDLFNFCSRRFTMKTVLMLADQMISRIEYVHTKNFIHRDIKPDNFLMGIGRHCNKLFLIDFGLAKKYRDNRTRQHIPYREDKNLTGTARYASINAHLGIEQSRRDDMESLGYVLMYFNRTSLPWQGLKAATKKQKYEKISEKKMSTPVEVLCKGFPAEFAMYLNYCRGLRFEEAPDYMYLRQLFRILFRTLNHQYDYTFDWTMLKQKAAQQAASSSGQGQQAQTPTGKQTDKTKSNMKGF
T2 sequence (Q96SW2 whole entry): as the sequence (Q96SW2 whole entry) above
T2 sequence (Q16531 whole entry partner): as the sequence (Q16531 whole entry partner) above

Compound: O=C1CCN(N2C(=O)c3ccc(CN4CC=C(c5ncnc6sc7c(c56)CCC7)CC4)cc3C2=O)C(=O)N1 [GT-08434, 5-((4-(6,7-dihydro-5H-cyclopenta[4,5]thieno[2,3-d]pyrimidin-4-yl)-3,6-dihydropyridin-1(2H)-yl)methyl)-2-(2,4-dioxotetrahydropyrimidin-1(2H)-yl)isoindoline-1,3-dione]
- inhibition at 0.01 µM (H292): 20 to 40%
- inhibition at 0.5 µM (H292): 15 to 20%
- substrate protein remaining % WEE1 (WEE1): B (80%< substrate protein remaining %≤ 100%)
- substrate protein remaining % CK1α (CK1α): A (0% ≤ substrate protein remaining % ≤ 80%)
- substrate protein remaining % IKZF3 (IKZF3): A (0% ≤ substrate protein remaining % ≤ 80%)
- substrate protein remaining % IKZF1 (IKZF1): A (0% ≤ substrate protein remaining % ≤ 80%)
- substrate protein remaining % GSPT1 (GSPT1): A (0% ≤ substrate protein remaining % ≤ 80%)
- substrate protein remaining % IKZF2 (IKZF2): A (0% ≤ substrate protein remaining % ≤ 80%)

Compound: O=C1CCN(N2C(=O)c3ccc(CN4CCC(c5ncc6ccsc6n5)CC4)cc3C2=O)C(=O)N1 [GT-08427, 2-(2,4-dioxotetrahydropyrimidin-1(2H)-yl)-5-((4-(thieno[2,3-d]pyrimidin-2-yl)piperidin-1-yl)methyl)isoindoline-1,3-dione]
- inhibition at 0.01 µM (H292): 15 to 20%
- inhibition at 0.5 µM (H292): 20 to 40%
- substrate protein remaining % WEE1 (WEE1): A (0% ≤ substrate protein remaining % ≤ 80%)
- substrate protein remaining % CK1α (CK1α): B (80%< substrate protein remaining %≤ 100%)
- substrate protein remaining % IKZF3 (IKZF3): B (80%< substrate protein remaining %≤ 100%)
- substrate protein remaining % IKZF1 (IKZF1): B (80%< substrate protein remaining %≤ 100%)
- substrate protein remaining % GSPT1 (GSPT1): B (80%< substrate protein remaining %≤ 100%)
- substrate protein remaining % IKZF2 (IKZF2): A (0% ≤ substrate protein remaining % ≤ 80%)

Compound: O=C1CCN(N2C(=O)c3ccc(CN4CCN(c5ncnc6sc7c(c56)CCC7)CC4)cc3C2=O)C(=O)N1 [GT-08103, 5-((4-(6,7-dihydro-5H-cyclopenta[4,5]thieno[2,3-d]pyrimidin-4-yl)piperazin-1-yl)methyl)-2-(2,4-dioxotetrahydropyrimidin-1(2H)-yl)isoindoline-1,3-dione]
- inhibition at 0.01 µM (H292): 15 to 20%
- inhibition at 0.5 µM (H292): 15 to 20%
- substrate protein remaining % WEE1 (WEE1): B (80%< substrate protein remaining %≤ 100%)
- substrate protein remaining % CK1α (CK1α): B (80%< substrate protein remaining %≤ 100%)
- substrate protein remaining % IKZF3 (IKZF3): A (0% ≤ substrate protein remaining % ≤ 80%)
- substrate protein remaining % IKZF1 (IKZF1): B (80%< substrate protein remaining %≤ 100%)
- substrate protein remaining % GSPT1 (GSPT1): B (80%< substrate protein remaining %≤ 100%)
- substrate protein remaining % IKZF2 (IKZF2): A (0% ≤ substrate protein remaining % ≤ 80%)

Compound: Cc1nc(C2=CCN(Cc3ccc4c(c3)CN(N3CCC(=O)NC3=O)C4=O)CC2)c2c3c(sc2n1)CCC3 [GT-08437, 1-(5-((4-(2-methyl-6,7-dihydro-5H-cyclopenta[4,5]thieno[2,3-d]pyrimidin-4-yl)-3,6-dihydropyridin-1(2H)-yl)methyl)-1-oxoisoindolin-2-yl)dihydropyrimidine-2,4(1H,3H)-dione]
- inhibition at 0.01 µM (H292): 20 to 40%
- inhibition at 0.5 µM (H292): 15 to 20%
- substrate protein remaining % WEE1 (WEE1): A (0% ≤ substrate protein remaining % ≤ 80%)
- substrate protein remaining % CK1α (CK1α): B (80%< substrate protein remaining %≤ 100%)
- substrate protein remaining % IKZF3 (IKZF3): A (0% ≤ substrate protein remaining % ≤ 80%)
- substrate protein remaining % IKZF1 (IKZF1): A (0% ≤ substrate protein remaining % ≤ 80%)
- substrate protein remaining % GSPT1 (GSPT1): A (0% ≤ substrate protein remaining % ≤ 80%)
- substrate protein remaining % IKZF2 (IKZF2): B (80%< substrate protein remaining %≤ 100%)

Compound: Cc1nc(C2=CCN(Cc3ccc4c(c3)C(=O)N(N3CCC(=O)NC3=O)C4=O)CC2)c2c3c(sc2n1)CCCC3 [GT-08432, 2-(2,4-dioxotetrahydropyrimidin-1(2H)-yl)-5-((4-(2-methyl-5,6,7,8-tetrahydrobenzo[4,5]thieno[2,3-d]pyrimidin-4-yl)-3,6-dihydropyridin-1(2H)-yl)methyl)isoindoline-1,3-dione]
- inhibition at 0.01 µM (H292): 20 to 40%
- inhibition at 0.5 µM (H292): 20 to 40%
- substrate protein remaining % WEE1 (WEE1): B (80%< substrate protein remaining %≤ 100%)
- substrate protein remaining % CK1α (CK1α): A (0% ≤ substrate protein remaining % ≤ 80%)
- substrate protein remaining % IKZF3 (IKZF3): A (0% ≤ substrate protein remaining % ≤ 80%)
- substrate protein remaining % IKZF1 (IKZF1): B (80%< substrate protein remaining %≤ 100%)
- substrate protein remaining % GSPT1 (GSPT1): A (0% ≤ substrate protein remaining % ≤ 80%)
- substrate protein remaining % IKZF2 (IKZF2): B (80%< substrate protein remaining %≤ 100%)

Compound: O=C1CCN(N2C(=O)c3ccc(CN4CCC(c5ncnc6sc7c(c56)CCCC7)CC4)cc3C2=O)C(=O)N1 [GT-08424, 2-(2,4-dioxotetrahydropyrimidin-1(2H)-yl)-5-((4-(5,6,7,8-tetrahydrobenzo[4,5]thieno[2,3-d]pyrimidin-4-yl)piperidin-1-yl)methyl)isoindoline-1,3-dione]
- inhibition at 0.01 µM (H292): 20 to 40%
- inhibition at 0.5 µM (H292): 10 to 15%
- substrate protein remaining % WEE1 (WEE1): B (80%< substrate protein remaining %≤ 100%)
- substrate protein remaining % CK1α (CK1α): A (0% ≤ substrate protein remaining % ≤ 80%)
- substrate protein remaining % IKZF3 (IKZF3): B (80%< substrate protein remaining %≤ 100%)
- substrate protein remaining % IKZF1 (IKZF1): B (80%< substrate protein remaining %≤ 100%)
- substrate protein remaining % GSPT1 (GSPT1): A (0% ≤ substrate protein remaining % ≤ 80%)
- substrate protein remaining % IKZF2 (IKZF2): B (80%< substrate protein remaining %≤ 100%)

Compound: O=C1CCN(N2C(=O)c3ccc(CN4CCN(c5nc6c(c(N7CCOCC7)n5)SCC6)CC4)cc3C2=O)C(=O)N1 [GT-08451, 2-(2,4-dioxotetrahydropyrimidin-1(2H)-yl)-5-((4-(4-morpholino-6,7-dihydrothieno[3,2-d]pyrimidin-2-yl)piperazin-1-yl)methyl)isoindoline-1,3-dione]
- inhibition at 0.01 µM (H292): 15 to 20%
- inhibition at 0.5 µM (H292): 20 to 40%
- substrate protein remaining % WEE1 (WEE1): B (80%< substrate protein remaining %≤ 100%)
- substrate protein remaining % CK1α (CK1α): A (0% ≤ substrate protein remaining % ≤ 80%)
- substrate protein remaining % IKZF3 (IKZF3): A (0% ≤ substrate protein remaining % ≤ 80%)
- substrate protein remaining % IKZF1 (IKZF1): B (80%< substrate protein remaining %≤ 100%)
- substrate protein remaining % GSPT1 (GSPT1): B (80%< substrate protein remaining %≤ 100%)
- substrate protein remaining % IKZF2 (IKZF2): B (80%< substrate protein remaining %≤ 100%)

Compound: O=C1CCN(N2C(=O)c3ccc(CN4CCN(c5nc(Cl)nc6c5SCC6)CC4)cc3C2=O)C(=O)N1 [GT-08448, 5-((4-(2-chloro-6,7-dihydrothieno[3,2-d]pyrimidin-4-yl)piperazin-1-yl)methyl)-2-(2,4-dioxotetrahydropyrimidin-1(2H)-yl)isoindoline-1,3-dione]
- inhibition at 0.01 µM (H292): 20 to 40%
- inhibition at 0.5 µM (H292): 20 to 40%
- substrate protein remaining % WEE1 (WEE1): B (80%< substrate protein remaining %≤ 100%)
- substrate protein remaining % CK1α (CK1α): B (80%< substrate protein remaining %≤ 100%)
- substrate protein remaining % IKZF3 (IKZF3): B (80%< substrate protein remaining %≤ 100%)
- substrate protein remaining % IKZF1 (IKZF1): B (80%< substrate protein remaining %≤ 100%)
- substrate protein remaining % GSPT1 (GSPT1): A (0% ≤ substrate protein remaining % ≤ 80%)
- substrate protein remaining % IKZF2 (IKZF2): B (80%< substrate protein remaining %≤ 100%)

Compound: O=C1CCN(N2C(=O)c3ccc(CN4CC=C(c5ncnc6sc(-c7ccccc7)cc56)CC4)cc3C2=O)C(=O)N1 [GT-08430, 2-(2,4-dioxotetrahydropyrimidin-1(2H)-yl)-5-((4-(6-phenylthieno[2,3-d]pyrimidin-4-yl)-3,6-dihydropyridin-1(2H)-yl)methyl)isoindoline-1,3-dione]
- inhibition at 0.01 µM (H292): 15 to 20%
- inhibition at 0.5 µM (H292): 10 to 15%
- substrate protein remaining % WEE1 (WEE1): A (0% ≤ substrate protein remaining % ≤ 80%)
- substrate protein remaining % CK1α (CK1α): B (80%< substrate protein remaining %≤ 100%)
- substrate protein remaining % IKZF3 (IKZF3): B (80%< substrate protein remaining %≤ 100%)
- substrate protein remaining % IKZF1 (IKZF1): B (80%< substrate protein remaining %≤ 100%)
- substrate protein remaining % GSPT1 (GSPT1): B (80%< substrate protein remaining %≤ 100%)
- substrate protein remaining % IKZF2 (IKZF2): B (80%< substrate protein remaining %≤ 100%)
